Source: patent US20100190729A1 (CHUNG-ANG University Industry Academic Cooperation …, priority 2009, published 2010)
Values belong to the compound of their own block, whether it stands above or below them.

Columns and labels:
CD25/CD69 = experiment: T-cell early activation markers, flow cytometry; format: cell-based, mouse; details: 100 μg/ml, splenocytes stimulated by anti-CD3 mAb, 24 hrs
Experimental: FIG. 12 is a flow cytometry result analyzing the changes of CD25/CD69 expression induced by hirsutanonol. Splenocytes were stimulated by anti-CD3 mAb in the presence or absence of hirsutanonol. Each hirsutanonol and CsA was treated at concentrations of 50 and 100 μg/ml, and 50 nM. After incubation for 24 hrs, the percentage of cells expressing CD25 and CD69 were measured using flow cytometry.
CD25 and CD69 expression levels were comparatively measured in the group of basal, CsA and hirsutanonol (50, 100 μg/ml) respectively. CsA was used as a control group due to its strong inhibitory activity on CD25 and CD69 expression. The results were represented in FIG. 12.

IL-13 = IL-13 mRNA expression in anti-CD3 activated splenocytes, RT-PCR; format: cell-based, mouse
Experimental: (§1) FIG. 9 represents RT-PCR results showing an inhibitory effect of hirsutanonol on Th1 and Th2 cytokine expression. Murine splenocytes were cultured on 12 well plate (RT-PCR) at a concentration of 1.5×10^4 cells per well. For T cell activation, CsA (50 nM) and hirsutanonol were added into a well added with anti-CD3 mAb and all of other wells. Cells were incubated for 24 hrs and then […] was carried out. GAPDH was served as an internal control.
(§2) The mRNA expression levels of Th1 cytokines, IL-2 and Th2 cytokines, IL-4, IL-10 and IL-13 were examined. T cells activated by anti-CD3 mAb among spleen lymphocytes were used as a target. The primer sequences used to analyze IL-2, IL-4, IL-10 and IL-13 mRNA are as follows.

IL-2 [1] = experiment: IL-2 expression in anti-CD3 activated murine splenocytes, ELISA; format: cell-based, mouse
Experimental: FIG. 8 is the experimental results showing the inhibitory effect of hirsutanonol on IL-2 expression. Murine splenocytes were grown on 96 well plate at a concentration of 1.5×10^4 cells per well. For T cell activation, CsA (50 nM) and hirsutanonol were added into a well added with anti-CD3 mAb and into all of other wells. Cells were incubated for 72 hrs and then ELISA was carried out using the supernatants collected from each well.
IL-2 is a cytokine expressed in Th1 cells and plays a crucial role in the proliferation of T cells. Hirsutanonol was added to splenic T cells which have been primarily cultured from murine splenocytes and pre-activated by anti-CD3 mAb. Inhibitory activity of hirsutanonol on IL-2 expression was measured using ELISA. Cyclosporine A (CsA) with strong inhibitory activity against IL-2 secretion was served as a positive control.

rat mast cell (RBL-2H3) = experiment: β-hexosaminidase assay (mast cell degranulation); format: cell-based
Experimental: FIG. 10 represents experimental results of β-hexosaminidase assay for hirsutanonol. The β-hexosaminidase (beta-hex) assay was performed according to the standard protocol of RBL-2H3 cell line. Suitable supernatant was collected and beta-hex activity was measured by incubating with a beta-hex substrate (p-nitrophenyl N-acetyl-beta-D-glucosaminide; Sigma) colored at 405 nm by cutting.
For testing the degranulation in rat mast cell (RBL-2H3) by hirsutanonol, β-hexosaminidase assay was carried out. β-hexosaminidase assay allows us to measure the activity and degranulation of mast cells.

IL-4 = IL-4 mRNA expression in anti-CD3 activated splenocytes, RT-PCR; format: cell-based, mouse
Experimental: as §1, §2

IL-2 [2] = experiment: IL-2 mRNA expression in anti-CD3 activated splenocytes, RT-PCR; format: cell-based, mouse
Experimental: as §1, §2

IL-10 = IL-10 mRNA expression in anti-CD3 activated splenocytes, RT-PCR; format: cell-based, mouse
Experimental: as §1, §2

Jurkat cells = experiment: Inhibition of cell proliferation, CCK assay (WST-8); format: cell-based, human
Experimental: FIG. 7 is a graph measuring the inhibitory effect of hirsutanonol on cell proliferation. Jurat cells were seeded into a 96 well plate at a concentration of 1×10^4 cells per well, and cultured in 2% FBS DMEM with or without hirsutanonol. Cell numbers were counted in triplicate wells by measuring the absorbance of reduced WST-8 (Dojindo, Japan) at 450 nm.
Hirsutanonol activity to inhibit cell proliferation of Jurkat cells was tested using CCK assay. […] Therefore, about 50 μg/ml of hirsutanonol was used in experiments to assess in vitro activity of hirsutanonol.

[3] = test system: BSA (bovine serum albumin); experiment: BSA degradation test (anti-oxidative activity, Cu2+/H2O2); format: biochemical
Experimental: The hydroxyl radical-mediated oxidation experiments were carried out by metal-catalyzed reactions. BSA (bovine serum albumin) was dissolved in 150 mM phosphate buffer (pH 7.3) to a final concentration of 0.5 mg/ml. […] 50 μg/ml of ascorbic acid was directly dissolved in 1×PBS and served as a control (an anti-oxidant). After incubation in an open tube, the reaction was kept to stand in a 37° C. shaking water bath. Each experimental group was loaded on 10% SDS-PAGE and stained with 0.01% Coomassie blue.
50 μg of BSA (Sigma) was added to 37.5 mM phosphate buffers (pH 7.3) containing 100 μM Cu^2+, 2.5 mM H2O2 and various amounts of hirsutanonol (1, 50, 100/200 μg/ml), and incubated at 37° C. for 2 hrs. Vitamin C (50 μg/ml) was served as a positive control. The reaction mixture was separated on 10% SDS gel and the protein bands were stained with 0.01% Coomassie blue.
Evaluation of anti-oxidative activity was preformed according to a BSA (bovine serum albumin) degradation test. BSA degradation test is a method to verify a capacity of an anti-oxidative compound which protects proteins or enzymes from damage by reactive oxygen species (ROS) using a metal ion-catalyzed reaction. […] The reaction mixture was electrophoresized on 10% SDS-PAGE (SDS-polyacrylamide gel).
To examine anti-oxidative activity of hirsutanonol, the removal of radical produced from H2O2/Cu^2+ was measured.

[4] = Solubility in water on preparing the stock solution; details: stock solution preparation
Text: The final concentration of DMSO was adjusted to not more than 0.1% so as to maximally exclude the interference of the solvent. […] The prepared stock solutions were stored and then used after dilution to the suitable concentration.

SMILES: O=C(CCc1ccc(O)c(O)c1)CC(O)CCc1ccc(O)c(O)c1 (stereo not drawn) [hirsutanonol]
inhibitory activity on CD25/CD69 expression compared to basal and CsA (CD25/CD69): excellent inhibitory activity | inhibitory activity on IL-13 mRNA expression (IL-13; 50 μg/ml or 100 μg/ml): significant inhibitory activity | inhibitory effect on IL-13 mRNA expression compared to CsA (IL-13; 100 μg/ml, CsA 50 nM): inhibitory effect equal to CsA | inhibitory effect on IL-2 expression compared to CsA (IL-2 [1]; 50 μg/ml or 100 μg/ml, CsA 50 nM, 72 hrs): much higher than that of CsA | inhibition effect on IL-2 secretion (IL-2 [1]; 50 μg/ml, without cytotoxicity): remarkably exhibited | activity level of β-hexosaminidase (rat mast cell (RBL-2H3); 100 μg/ml): maximally inhibited | inhibitory capability compared to CsA (rat mast cell (RBL-2H3); β-hexosaminidase): 20 fold | inhibitory activity on IL-4 mRNA expression (IL-4; 50 μg/ml or 100 μg/ml): significant inhibitory activity | inhibitory effect on IL-4 mRNA expression compared to CsA (IL-4; 100 μg/ml, CsA 50 nM): inhibitory effect equal to CsA | inhibitory activity on IL-2 mRNA expression (IL-2 [2]; 50 μg/ml or 100 μg/ml): significant inhibitory activity | inhibitory effect on IL-2 mRNA expression compared to CsA (IL-2 [2]; 100 μg/ml, CsA 50 nM): inhibitory effect equal to CsA | inhibitory activity on IL-10 mRNA expression (IL-10; 50 μg/ml or 100 μg/ml): significant inhibitory activity | inhibitory effect on IL-10 mRNA expression compared to CsA (IL-10; 100 μg/ml, CsA 50 nM): inhibitory effect equal to CsA | concentration exhibiting inhibitory effects on cell proliferation (Jurkat cells): over 50 μg/ml | BSA protection effect ([3]; hirsutanonol 100 μg/ml): significantly exhibited BSA protection effect | activity to protect BSA ([3]; hirsutanonol 1, 50, 100/200 μg/ml, Cu2+ 100 μM, H2O2 2.5 mM): increased in a concentration-dependent manner | BSA protection effect compared to Vitamin C ([3]; hirsutanonol, Vitamin C 50 μg/ml positive control): lower than that of Vitamin C

solubility in water [4]: feasibly dissolved in water
SMILES: O=C(CCc1ccc(O)c(O)c1)C[C@H](CCc1ccc(O)c(O)c1)O[C@@H]1OC[C@@H](O)[C@H](O)[C@H]1O [oregonin]
